Data taken from patent US8309589B2, “Fluorine-containing organosulfur compound and pesticidal composition comprising the same” (Sumitomo Chemical Company, Limited, priority 2007, dated 2012).

system: Blattalla germanica; assay: Test Example 4: filter paper with sucrose bait, Blattalla germanica; assay type: in vivo; conditions: 500 ppm, 0.7 ml on filter paper; 2 male imagoes; after 6 days
Experimental: A formulation of any one of the present compounds (2), (3) and (4) obtained according to Formulation Example 10 was diluted with water so that the active ingredient concentration was 500 ppm to obtain a test solution.
A filter paper having a diameter of 5.5 cm was spread on the bottom of a polyethylene cup having a diameter of 5.5 cm and 0.7 ml of the test solution was added dropwise onto the filter paper. As a bait 30 mg of sucrose was uniformly placed on the filter paper. Into the polyethylene cup, 2 male imagoes of Blattalla germanica were released and the cup was sealed with a lid. After 6 days, the number of surviving Blattalla germanica was examined and the death rate of the pest was calculated.

Row | SMILES | pest death rate [%]
1 | CC(C)(C)n1cc(CSCCC(F)(F)F)cn1 [present compound (4), 1-tert-butyl-4-[(3,3,3-trifluoropropylsulfanyl)methyl]-1H-pyrazole] | 100
2 | FC(F)(F)CCSCn1cnc(C(F)(F)F)c1 [present compound (3), 4-trifluoromethyl-1-[(3,3,3-trifluoropropylsulfanyl)methyl]-1H-imidazole] | 100
3 | CC(C)(C)c1cc(CSCCC(F)(F)F)no1 [present compound (2), 5-tert-butyl-3-[(3,3,3-trifluoropropylsulfanyl)methyl]isoxazole] | 100
